Like-named read-outs stand apart in the source and are kept apart here.
Legend:
[1] = Solubility of components in the exemplary compositions; assay type: physicochemical; conditions: in the current exemplary compositions
Procedure: Additional experiments provided a greater understanding of the ability to achieve certain functional goals for the final composition. Evaluation of phosphorus, calcium, vitamin D, fluoride, xylitol, and the pH of the alkaline ionized water was performed as described below.

[2] = cited from earlier work
[3] = Evaluation of calcium: bioavailability; conditions: form of calcium

In the case of vitamin D, the solubility [1] was “not soluble”.
In the case of `OC[C@@H](O)[C@H](O)[C@@H](O)CO` [xylitol], the dosage causing diarrhea ([2]; adults) is given as 100 g/day, the dosage causing diarrhea ([2]; children) is given as 45 g/day and the tolerated amount ([2]; most adults) is given as 40 g/day.
With `CC(O)C(=O)[O-].O=C([O-])[C@H](O)[C@@H](O)[C@H](O)[C@H](O)CO.[Ca+2]` [Calcium lactate gluconate] the solubility [1] was “very soluble” and the bioavailability [3] was “bioavailable”.

Reference: patent US20170035664A1, “FLAVOR-OPTIMIZED IONIZED WATER COMPOSITIONS” (priority 2015, published 2017)
